Columns and labels:
[1] = target: MAP/microtubule affinity-regulating kinase 3 (Homo sapiens, UniProt P27448); assay: MARK3(MAR3LGO5) Takeda global kinase panel
[2] = target: Sodium-dependent dopamine transporter (Homo sapiens) (UniProt Q01959); settings: Compound concentration 10.0 uM
[3] = target: Platelet-derived growth factor receptor beta (Homo sapiens, UniProt P09619); assay: PDGFRbeta(PDGBIHC1) Takeda global kinase panel
[4] = target: Androgen receptor (Homo sapiens) (UniProt P10275); settings: Compound concentration 10.0 uM
TGF-beta receptor type-1 = TGF-beta receptor type-1 (Homo sapiens, UniProt P36897); assay: TGFbetaR1(TGF1LGF1) Takeda global kinase panel
[5] = target: BMP-2-inducible protein kinase (Homo sapiens, UniProt Q9NSY1); assay: BIKE(BM2KLGY1) Takeda global kinase panel
[6] = target: Serine/threonine-protein kinase 32A (Homo sapiens, UniProt Q8WU08); assay: YANK1(S32APHY1) Takeda global kinase panel
Ephrin type-A receptor 6 = Ephrin type-A receptor 6 (Homo sapiens, UniProt Q9UF33); assay: EphA6(EPA6LGI5) Takeda global kinase panel
[7] = target: Casein kinase I isoform gamma-2 (Homo sapiens, UniProt P78368); assay: CK1gamma2(C1G2LGI1) Takeda global kinase panel
[8] = target: Protein kinase C epsilon type (Homo sapiens, UniProt Q02156); assay: PKCepsilon(PRKELHY1) Takeda global kinase panel
[9] = target: cAMP-dependent protein kinase catalytic subunit PRKX (Homo sapiens, UniProt P51817); assay: PRKX(PRKXLGH5) Takeda global kinase panel
Ephrin type-B receptor 2 = Ephrin type-B receptor 2 (Homo sapiens, UniProt P29323); assay: EphB2(EPB2LGY1) Takeda global kinase panel
[10] = target: Serine/threonine-protein kinase BRSK1 (Homo sapiens, UniProt Q8TDC3); assay: BRSK1(BRS1LGA1) Takeda global kinase panel
[11] = target: Protein kinase C alpha type (Homo sapiens, UniProt P17252); assay: PKCalpha(PRKALGY1) Takeda global kinase panel
[12] = target: Serine/threonine-protein kinase DCLK3 (Homo sapiens, UniProt Q9C098); assay: DCAMKL3(DCL3LGP1) Takeda global kinase panel
[13] = target: Protein kinase C iota type (Homo sapiens, UniProt P41743); assay: PKCiota(PRKILGRD) Takeda global kinase panel
[14] = target: Phosphatidylinositol 4,5-bisphosphate 3-kinase catalytic subunit delta isoform (Homo sapiens, UniProt O00329); assay: PI3KCD(PI3DCGRK) Takeda global kinase panel
[15] = target: T1, 5-hydroxytryptamine receptor 1A (Homo sapiens) (UniProt P08908); settings: Compound concentration 10.0 uM
T1 sequence (whole entry): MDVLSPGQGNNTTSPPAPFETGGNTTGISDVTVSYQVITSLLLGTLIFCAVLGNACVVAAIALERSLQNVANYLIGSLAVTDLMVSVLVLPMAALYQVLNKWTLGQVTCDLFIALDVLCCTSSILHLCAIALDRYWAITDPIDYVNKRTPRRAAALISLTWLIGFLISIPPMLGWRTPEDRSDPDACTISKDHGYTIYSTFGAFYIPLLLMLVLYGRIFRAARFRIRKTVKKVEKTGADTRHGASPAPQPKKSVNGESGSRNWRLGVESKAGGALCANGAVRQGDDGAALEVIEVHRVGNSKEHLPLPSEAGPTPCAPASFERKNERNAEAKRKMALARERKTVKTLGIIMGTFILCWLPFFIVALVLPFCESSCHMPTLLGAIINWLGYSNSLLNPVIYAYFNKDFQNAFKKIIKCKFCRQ

[16] = target: STE20-related kinase adapter protein alpha (Homo sapiens, UniProt Q7RTN6); assay: STLK5(STRAPHD1) Takeda global kinase panel
[17] = target: Serine/threonine-protein kinase 4 (Homo sapiens, UniProt Q13043); assay: MST1(STK4LGF1) Takeda global kinase panel
[18] = target: Testis-specific serine/threonine-protein kinase 1 (Homo sapiens, UniProt Q9BXA7); assay: TSSK1(TS1BLGP1) Takeda global kinase panel
[19] = target: Tyrosine-protein kinase Mer (Homo sapiens, UniProt Q12866); assay: Mer(MERTLGF1) Takeda global kinase panel
[20] = target: Myosin light chain kinase, smooth muscle (Homo sapiens, UniProt Q15746); assay: smMLCK(MYL1LGF1) Takeda global kinase panel
[21] = target: Uncharacterized serine/threonine-protein kinase SBK3 (Homo sapiens, UniProt P0C264); assay: SgK110(SG10LGF1) Takeda global kinase panel
[22] = target: Mitogen-activated protein kinase kinase kinase 5 (Homo sapiens, UniProt Q99683); assay: ASK [MAP3K5(M3K5LGA1)] Takeda global kinase panel
[23] = target: Serine/threonine-protein kinase SIK2 (Homo sapiens, UniProt Q9H0K1); assay: QIK(SIK2LGY1) Takeda global kinase panel
[24] = target: Serine/threonine-protein kinase 24 (Homo sapiens, UniProt Q9Y6E0); assay: MST3(ST24LGC1) Takeda global kinase panel
[25] = target: Cyclin-dependent kinase 9 (Homo sapiens, UniProt P50750); assay: CDK9(CDK9CGS1) Takeda global kinase panel
[26] = target: Ankyrin repeat and protein kinase domain-containing protein 1 (Homo sapiens, UniProt Q8NFD2); assay: SgK288(ANK1LGRL) Takeda global kinase panel
[27] = target: Glycogen synthase kinase-3 beta (Homo sapiens, UniProt P49841); assay: GSK3beta(GS3BLGM1) Takeda global kinase panel
[28] = target: Rho-associated protein kinase 2 (Homo sapiens, UniProt O75116); assay: ROCK2(ROC2LGG1) Takeda global kinase panel
[29] = target: Receptor-interacting serine/threonine-protein kinase 2 (Homo sapiens, UniProt O43353); assay: RIPK2(RIP2LGI1) Takeda global kinase panel
[30] = target: Protein-tyrosine kinase 2-beta (Homo sapiens, UniProt Q14289); assay: PYK2(PT2BLHF1) Takeda global kinase panel
[31] = target: Homeodomain-interacting protein kinase 1 (Homo sapiens, UniProt Q86Z02); assay: HIPK1(HIP1LGF1) Takeda global kinase panel
[32] = target: Bromodomain testis-specific protein (Homo sapiens, UniProt Q58F21); assay: BRDT(BRDTLGRC) Takeda global kinase panel
[33] = target: Phosphorylase b kinase gamma catalytic chain, skeletal muscle/heart isoform (Homo sapiens, UniProt Q16816); assay: PhKgamma1(PHG1LHY1) Takeda global kinase panel
[34] = target: Sigma non-opioid intracellular receptor 1 (Homo sapiens) (UniProt Q99720); assay: Sigma 1 Eurofins-Panlabs radioligand binding assay; design: ligand concentration 15 nM; settings: Compound concentration 10.0 uM
[35] = target: Cyclin-dependent kinase 2 (Homo sapiens, UniProt P24941); assay: CDK2(CDK2CGS1) Takeda global kinase panel
[36] = target: Tyrosine-protein kinase ABL1 (Homo sapiens, UniProt P00519); assay: Abl(ABL1IHY1) Takeda global kinase panel
[37] = target: Serine/threonine-protein kinase Chk1 (Homo sapiens, UniProt O14757); assay: CHK1(CHE1CGP1) Takeda global kinase panel

Chain of Sodium-dependent dopamine transporter (Homo sapiens) (Q01959 whole entry): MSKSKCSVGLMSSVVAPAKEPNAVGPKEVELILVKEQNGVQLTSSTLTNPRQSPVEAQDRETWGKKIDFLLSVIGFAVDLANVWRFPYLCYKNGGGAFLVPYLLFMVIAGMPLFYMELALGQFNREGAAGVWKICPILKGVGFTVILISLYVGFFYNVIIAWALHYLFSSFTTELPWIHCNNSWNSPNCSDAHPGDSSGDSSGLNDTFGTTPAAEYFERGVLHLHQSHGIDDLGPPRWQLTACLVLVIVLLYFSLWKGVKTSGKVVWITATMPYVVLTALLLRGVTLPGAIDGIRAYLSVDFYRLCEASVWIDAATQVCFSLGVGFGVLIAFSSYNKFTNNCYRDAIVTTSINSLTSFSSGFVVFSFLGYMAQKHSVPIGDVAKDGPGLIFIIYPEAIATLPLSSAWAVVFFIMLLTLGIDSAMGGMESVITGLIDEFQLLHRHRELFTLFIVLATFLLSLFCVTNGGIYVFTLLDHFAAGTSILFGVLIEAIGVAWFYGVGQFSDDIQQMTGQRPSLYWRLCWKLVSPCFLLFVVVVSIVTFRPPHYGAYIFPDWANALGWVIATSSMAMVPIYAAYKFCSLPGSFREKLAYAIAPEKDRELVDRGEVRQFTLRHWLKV
Chain of BMP-2-inducible protein kinase (Q9NSY1 whole entry): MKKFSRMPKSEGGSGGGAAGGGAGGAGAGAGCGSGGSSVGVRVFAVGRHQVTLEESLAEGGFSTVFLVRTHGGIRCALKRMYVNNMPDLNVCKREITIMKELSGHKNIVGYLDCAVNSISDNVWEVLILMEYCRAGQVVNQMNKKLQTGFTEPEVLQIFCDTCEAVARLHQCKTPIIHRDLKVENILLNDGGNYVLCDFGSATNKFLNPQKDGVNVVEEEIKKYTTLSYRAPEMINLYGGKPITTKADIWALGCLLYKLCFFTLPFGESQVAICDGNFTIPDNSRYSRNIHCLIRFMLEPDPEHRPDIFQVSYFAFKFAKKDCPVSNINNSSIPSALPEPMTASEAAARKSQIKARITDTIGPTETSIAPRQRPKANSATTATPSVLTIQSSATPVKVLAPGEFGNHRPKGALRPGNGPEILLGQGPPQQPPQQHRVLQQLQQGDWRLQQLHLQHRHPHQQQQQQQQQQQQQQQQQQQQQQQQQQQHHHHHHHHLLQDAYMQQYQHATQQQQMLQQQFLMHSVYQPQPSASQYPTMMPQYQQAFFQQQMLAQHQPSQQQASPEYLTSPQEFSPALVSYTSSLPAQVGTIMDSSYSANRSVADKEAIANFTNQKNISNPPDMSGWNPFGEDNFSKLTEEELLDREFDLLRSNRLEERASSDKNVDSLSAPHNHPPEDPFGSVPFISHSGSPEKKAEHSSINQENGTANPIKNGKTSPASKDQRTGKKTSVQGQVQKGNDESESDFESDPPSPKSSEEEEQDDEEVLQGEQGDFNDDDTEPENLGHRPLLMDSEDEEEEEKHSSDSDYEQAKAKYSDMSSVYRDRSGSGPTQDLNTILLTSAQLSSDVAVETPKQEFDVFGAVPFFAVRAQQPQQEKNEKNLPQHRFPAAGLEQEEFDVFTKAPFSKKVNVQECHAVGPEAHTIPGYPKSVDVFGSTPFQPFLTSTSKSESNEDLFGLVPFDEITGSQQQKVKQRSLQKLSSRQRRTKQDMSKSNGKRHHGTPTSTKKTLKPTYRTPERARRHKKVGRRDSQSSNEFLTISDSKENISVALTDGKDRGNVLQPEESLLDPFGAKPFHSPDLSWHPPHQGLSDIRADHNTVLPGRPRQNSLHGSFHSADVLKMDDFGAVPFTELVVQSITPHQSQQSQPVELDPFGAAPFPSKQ
Chain of Phosphatidylinositol 4,5-bisphosphate 3-kinase catalytic subunit delta isoform (O00329 whole entry, canonical isoform): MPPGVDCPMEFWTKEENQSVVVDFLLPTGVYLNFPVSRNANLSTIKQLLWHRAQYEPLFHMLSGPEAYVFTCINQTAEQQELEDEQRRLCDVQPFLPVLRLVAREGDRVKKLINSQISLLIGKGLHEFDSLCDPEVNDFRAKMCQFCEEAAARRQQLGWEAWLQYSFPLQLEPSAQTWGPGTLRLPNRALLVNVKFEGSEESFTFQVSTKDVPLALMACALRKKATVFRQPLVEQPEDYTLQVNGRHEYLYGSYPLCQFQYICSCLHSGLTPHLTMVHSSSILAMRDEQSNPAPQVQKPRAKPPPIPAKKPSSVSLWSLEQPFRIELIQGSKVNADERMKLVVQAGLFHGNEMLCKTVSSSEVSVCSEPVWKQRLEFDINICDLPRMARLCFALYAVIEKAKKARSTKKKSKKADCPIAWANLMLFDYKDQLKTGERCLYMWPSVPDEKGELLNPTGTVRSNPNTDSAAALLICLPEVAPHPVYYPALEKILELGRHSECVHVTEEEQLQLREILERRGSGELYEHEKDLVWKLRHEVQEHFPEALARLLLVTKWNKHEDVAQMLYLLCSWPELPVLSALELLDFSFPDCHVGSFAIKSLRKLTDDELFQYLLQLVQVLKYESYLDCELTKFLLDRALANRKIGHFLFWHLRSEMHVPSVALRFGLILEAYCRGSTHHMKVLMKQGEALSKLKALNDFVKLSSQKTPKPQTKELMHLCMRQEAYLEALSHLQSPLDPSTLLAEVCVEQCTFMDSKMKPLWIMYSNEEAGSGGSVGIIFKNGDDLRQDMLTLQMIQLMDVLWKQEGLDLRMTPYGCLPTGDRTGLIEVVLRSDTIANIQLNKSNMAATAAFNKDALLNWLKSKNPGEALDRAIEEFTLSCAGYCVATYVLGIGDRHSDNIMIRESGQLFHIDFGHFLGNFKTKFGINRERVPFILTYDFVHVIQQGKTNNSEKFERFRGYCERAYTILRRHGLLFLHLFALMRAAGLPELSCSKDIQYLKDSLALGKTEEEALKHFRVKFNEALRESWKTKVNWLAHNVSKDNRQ
Chain of STE20-related kinase adapter protein alpha (Q7RTN6 whole entry): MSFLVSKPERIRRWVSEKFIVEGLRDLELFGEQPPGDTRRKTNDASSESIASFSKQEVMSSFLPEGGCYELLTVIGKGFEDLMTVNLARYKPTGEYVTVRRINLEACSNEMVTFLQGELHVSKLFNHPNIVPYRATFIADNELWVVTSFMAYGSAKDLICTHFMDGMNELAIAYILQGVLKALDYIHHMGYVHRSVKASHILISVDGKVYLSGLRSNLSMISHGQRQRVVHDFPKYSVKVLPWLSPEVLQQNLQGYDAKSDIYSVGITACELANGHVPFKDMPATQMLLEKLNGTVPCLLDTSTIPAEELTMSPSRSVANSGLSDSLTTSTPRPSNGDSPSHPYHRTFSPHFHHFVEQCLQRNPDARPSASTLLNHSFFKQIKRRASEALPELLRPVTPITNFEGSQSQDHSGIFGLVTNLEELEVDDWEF
Chain of Receptor-interacting serine/threonine-protein kinase 2 (O43353 whole entry): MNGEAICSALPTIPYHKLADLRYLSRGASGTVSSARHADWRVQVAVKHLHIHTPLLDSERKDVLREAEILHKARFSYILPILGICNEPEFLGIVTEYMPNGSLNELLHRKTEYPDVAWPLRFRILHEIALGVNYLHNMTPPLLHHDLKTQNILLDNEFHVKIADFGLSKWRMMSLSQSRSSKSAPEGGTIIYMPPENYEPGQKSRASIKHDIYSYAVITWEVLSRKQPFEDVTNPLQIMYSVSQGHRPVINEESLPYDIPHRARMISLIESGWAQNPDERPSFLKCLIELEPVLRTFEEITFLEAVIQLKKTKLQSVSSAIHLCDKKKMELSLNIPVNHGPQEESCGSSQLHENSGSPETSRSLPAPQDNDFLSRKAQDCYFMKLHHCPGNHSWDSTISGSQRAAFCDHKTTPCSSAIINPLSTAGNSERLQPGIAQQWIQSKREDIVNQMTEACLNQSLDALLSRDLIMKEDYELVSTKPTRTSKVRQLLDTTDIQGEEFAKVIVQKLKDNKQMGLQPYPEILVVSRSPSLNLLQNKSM
Chain of Casein kinase I isoform gamma-2 (P78368 whole entry, canonical isoform): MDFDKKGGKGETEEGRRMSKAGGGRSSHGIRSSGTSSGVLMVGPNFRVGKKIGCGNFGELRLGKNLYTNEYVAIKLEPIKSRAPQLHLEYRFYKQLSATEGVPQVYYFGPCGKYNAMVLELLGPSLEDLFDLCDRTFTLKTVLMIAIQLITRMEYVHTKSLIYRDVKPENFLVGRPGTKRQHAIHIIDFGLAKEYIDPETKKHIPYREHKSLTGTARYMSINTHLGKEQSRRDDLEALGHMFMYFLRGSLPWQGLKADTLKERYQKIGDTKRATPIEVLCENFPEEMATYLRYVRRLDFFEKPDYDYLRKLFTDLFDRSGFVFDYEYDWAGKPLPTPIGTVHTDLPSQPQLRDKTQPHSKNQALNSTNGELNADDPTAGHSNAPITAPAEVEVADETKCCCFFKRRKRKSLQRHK
Chain of Testis-specific serine/threonine-protein kinase 1 (Q9BXA7 whole entry): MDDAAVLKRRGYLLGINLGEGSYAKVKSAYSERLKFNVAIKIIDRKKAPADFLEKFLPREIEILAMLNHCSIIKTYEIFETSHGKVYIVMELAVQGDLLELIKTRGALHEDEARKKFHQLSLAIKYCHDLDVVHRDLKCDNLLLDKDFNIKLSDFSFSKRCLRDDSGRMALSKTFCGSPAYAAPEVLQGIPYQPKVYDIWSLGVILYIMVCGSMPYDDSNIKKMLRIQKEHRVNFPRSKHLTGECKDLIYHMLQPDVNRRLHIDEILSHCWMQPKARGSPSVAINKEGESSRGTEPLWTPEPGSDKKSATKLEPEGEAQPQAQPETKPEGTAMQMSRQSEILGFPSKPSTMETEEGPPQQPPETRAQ
Chain of Serine/threonine-protein kinase 32A (Q8WU08 whole entry): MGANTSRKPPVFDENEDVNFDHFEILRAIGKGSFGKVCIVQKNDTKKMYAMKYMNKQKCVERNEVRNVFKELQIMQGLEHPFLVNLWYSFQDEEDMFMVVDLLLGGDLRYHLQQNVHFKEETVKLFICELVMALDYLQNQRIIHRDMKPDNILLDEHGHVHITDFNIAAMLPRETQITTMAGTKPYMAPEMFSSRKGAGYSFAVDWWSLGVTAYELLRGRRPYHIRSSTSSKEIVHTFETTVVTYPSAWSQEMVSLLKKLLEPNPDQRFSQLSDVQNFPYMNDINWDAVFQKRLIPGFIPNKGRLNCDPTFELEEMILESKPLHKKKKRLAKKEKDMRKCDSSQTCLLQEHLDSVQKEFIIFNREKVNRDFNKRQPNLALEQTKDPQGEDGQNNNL

| Structure (SMILES) | IC50 [1] | inhibition [2] | IC50 [3] | inhibition [4] | IC50 (TGF-beta receptor type-1) | IC50 [5] | IC50 [6] | IC50 (Ephrin type-A receptor 6) | IC50 [7] | IC50 [8] | IC50 [9] | IC50 (Ephrin type-B receptor 2) | IC50 [10] | IC50 [11] | IC50 [12] | IC50 [13] | IC50 [14] | inhibition [15] | IC50 [16] | IC50 [17] | further results |
| --- | --- | --- | --- | --- | --- | --- | --- | --- | --- | --- | --- | --- | --- | --- | --- | --- | --- | --- | --- | --- | --- |
| CN1C(=O)[C@@H](N2CCc3cn(Cc4ccccc4)nc3C2=O)COc2ccccc21 [TP-030-1] | 1 µM | 29% | 1 µM | 6% | 1 µM | 1 µM | 1 µM | 1 µM | 1 µM | 1 µM | 1 µM | 1 µM | 1 µM | 1 µM | 1 µM | 1 µM | 1 µM | -6% | 1 µM | 1 µM | IC50 [18]: 1 µM; IC50 [19]: 1 µM; IC50 [20]: 1 µM; IC50 [21]: 1 µM; IC50 [22]: 1 µM; IC50 [23]: 1 µM; IC50 [24]: 1 µM; IC50 [25]: 1 µM; IC50 [26]: 1 µM; IC50 [27]: 1 µM; IC50 [28]: 1 µM; IC50 [29]: 1 µM; IC50 [30]: 1 µM; IC50 [31]: 1 µM; IC50 [32]: 1 µM; IC50 [33]: 1 µM; inhibition [34]: 27%; IC50 [35]: 1 µM; IC50 [36]: 1 µM; IC50 [37]: 1 µM |
| CN1C(=O)[C@@H](N2CCc3cn(CC4CCS(=O)(=O)CC4)nc3C2=O)COc2ccccc21 [TP-030n] | 1 µM | 10% | 1 µM | 0% | 1 µM | 1 µM | 1 µM | 1 µM | 1 µM | 1 µM | 1 µM | 1 µM | 1 µM | 1 µM | 1 µM | 1 µM | 1 µM | 3% | 1 µM | 1 µM | IC50 [18]: 1 µM; IC50 [19]: 1 µM; IC50 [20]: 1 µM; IC50 [21]: 1 µM; IC50 [22]: 1 µM; IC50 [23]: 1 µM; IC50 [24]: 1 µM; IC50 [25]: 1 µM; IC50 [26]: 1 µM; IC50 [27]: 1 µM; IC50 [28]: 1 µM; IC50 [29]: 1 µM; IC50 [30]: 1 µM; IC50 [31]: 1 µM; IC50 [32]: 1 µM; IC50 [33]: 1 µM; inhibition [34]: 11%; IC50 [35]: 1 µM; IC50 [36]: 1 µM; IC50 [37]: 1 µM |
